Source: US20030186814A1, “Enhanced herbicide composition” (Valent BioSciences Corporation, priority 2002, published 2003)
Where a name gives a salt, the structure may show the parent alone.

Columns and labels:
Giant Foxtail = test: Phytotoxicity rating after foliar spray, Giant Foxtail; format: in vivo, Setaria faberi (giant foxtail); details: Table 3; glyphosate 0.2% (v/v), alone or with 5 mM NaSA; COC 0.1%; mean rating 1-5; n = 5 plants
Description: (§1) In all experiments, deionized ultra-pure water was used in preparing solutions. Spray solutions were used as soon as possible after mixing.
(§2) COC was added to all spray solutions at a rate of 0.10% (v/v). For all treatments containing both an herbicide and a salicylate, these materials were mixed and applied in a single spray solution (commonly known as a tank mix). After spraying, plants were moved to the greenhouse and arranged in a randomized complete block experimental design. Plants were evaluated for phytotoxicity/herbicidal effects after spraying by assessing damage according to the following scale:
(§3) 5=100% leaf area affected (dead)
(§4) All the data were subject to an analysis of variance, and the mean separations were determined with Duncan's multiple range test at α=0.05.

Lambsquarters = test: Phytotoxicity rating after foliar spray, Lambsquarters; format: in vivo, Chenopodium album (lambsquarter); details: Table 4, alone or with 5 mM NaSA, COC 0.1%, mean rating 1-5, n = 6 plants
Description: as §1, §2, §3, §4

NK S2676 Soybean = test: Phytotoxicity rating after foliar spray, Roundup Ready soybean; details: Table 5, glyphosate-tolerant crop, n = 4 plants
Description: as §1, §2, §3, §4
Roundup Ready crops are tolerant to glyphosate. This tolerance is conferred by genetic modification of the crop species by the insertion of a glyphosate-insensitive EPSP synthase.

tobacco = test: Phytotoxicity rating after foliar spray, tobacco; format: in vivo, Nicotiana tabacum (tobacco); details: alone or with 5 mM NaSA, COC 0.1%, mean rating 1-5, n = 5 plants
Description: as §1, §2, §3, §4

[1] = glyphosate 0.1% (v/v) + COC 0.1%, mean rating 1-5
[2] = Table 2, glyphosate or Roundup 0.2% (v/v glyphosate)

O=C(O)CNCP(=O)(O)O [Glyphosate, N-(phosphonomethyl)glycine, monoisopropylamine salt]
Phytotoxicity at 8d (Giant Foxtail): 3.8 A | Phytoxicity at 6d (Giant Foxtail): 2.0 B | Phytoxicity at 11d (Giant Foxtail): 4.9 B | Phytotoxicity at 3d (Lambsquarters; glyphosate 0.004%): 1.0 A | Phytotoxicity at 7d (Lambsquarters; glyphosate 0.004%): 1.3 AB | Phytotoxicity at 11d (Lambsquarters; glyphosate 0.004%): 1.3 AB | Phytotoxicity at 3d (Lambsquarters; glyphosate 0.02%): 1.0 A | Phytotoxicity at 7d (Lambsquarters; glyphosate 0.02%): 1.5 ABC | Phytotoxicity at 11d (Lambsquarters; glyphosate 0.02%): 2.1 BC | Phytotoxicity at 3d (Lambsquarters; glyphosate 0.04%): 1.0 A | Phytotoxicity at 7d (Lambsquarters; glyphosate 0.04%): 1.6 BC | Phytotoxicity at 11d (Lambsquarters; glyphosate 0.04%): 2.4 C | Phytotoxicity at 3d (Lambsquarters; glyphosate 0.2% (v/v)): 1.4 BC | Phytotoxicity at 7d (Lambsquarters; glyphosate 0.2% (v/v)): 2.4 D | Phytotoxicity at 11d (Lambsquarters; glyphosate 0.2% (v/v)): 4.0 D | Phytotoxicity at 1d (NK S2676 Soybean; [1]): 1.6 BC | Phytotoxicity at 4d (NK S2676 Soybean; [1]): 1.8 BC | Phytotoxicity at 6d (NK S2676 Soybean; [1]): 1.9 C | Phytotoxicity at 11d (NK S2676 Soybean; [1]): 1.9 D | Phytotoxicity at 4d (tobacco; Table 1, glyphosate 0.04%): 1.2 A | Phytotoxicity at 6d (tobacco; Table 1, glyphosate 0.04%): 1.7 BC | Phytotoxicity at 8d (tobacco; Table 1, glyphosate 0.04%): 2 B | Phytotoxicity at 11d (tobacco; Table 1, glyphosate 0.04%): 3.1 B | Phytotoxicity at 14d (tobacco; Table 1, glyphosate 0.04%): 3.6 B | Phytotoxicity at 4d (tobacco; Table 1, glyphosate 0.2% (v/v)): 1.5 B | Phytotoxicity at 6d (tobacco; Table 1, glyphosate 0.2% (v/v)): 2.2 CD | Phytotoxicity at 8d (tobacco; Table 1, glyphosate 0.2% (v/v)): 3.1 D | Phytotoxicity at 11d (tobacco; Table 1, glyphosate 0.2% (v/v)): 4.1 D | Phytotoxicity at 14d (tobacco; Table 1, glyphosate 0.2% (v/v)): 4.9 C | Phytotoxicity at 5f (tobacco; [2]): 1.5 BC | Phytotoxicity at 2d (tobacco; [2]): 1.3 B | Phytotoxicity at 8d (tobacco; [2]): 3.3 C | Phytotoxicity at 13d (tobacco; [2]): 4.9 B

O=C([O-])c1ccccc1O.[Na+] [NaSA, sodium salicylate]
Phytotoxicity at 4d (NK S2676 Soybean; NaSA 5 mM + COC 0.1%, mean rating 1 = no damage to 5 = dead): 1.5 B
